Results published in publication PMC9276671, “A first-in-human Phase I dose-escalation trial of the novel therapeutic peptide, ALM201, demonstrates a favourable safety profile in unselected patients with ovarian cancer and other advanced solid tumours” (British Journal of Cancer, 2022).
No end group written: not given here.

Assay: Plasma pharmacokinetics of ALM201 in Phase I patients (validated LC-MS/MS, Phoenix WinNonlin)
Conditions: human, plasma, sc; for Tmax: median; for Tmax / AUC(0-t) / Cmax: plasma LC-MS/MS; for AUC(0-t): AUC0-t; for AUC(0-t) / Cmax: Gmean (CV); for level at 0.25 h / level at 0.75 h / level at 1.5 h / level at 2 h / level at 3 h / level at 4 h / level at 5 h / level at 6 h / level at 0.5 h / level at 1 h / level at 3.5 h: Plasma concentration, geometric mean (CV%), LC-MS/MS; for level at 0.25 h: day 1 cycle 1, 0.25 h after dosing; for level at 0.75 h: day 1 cycle 1, 0.75 h after dosing; for level at 3 h: day 1 cycle 1, 3 h after dosing; for level at 4 h: day 1 cycle 1, 4 h after dosing; for level at 6 h: day 1 cycle 1, 6 h after dosing
[1] = 100 mg, 100 mg SC, day 1 cycle 1, n = 4
[2] = 100 mg, 100 mg SC, day 3 cycle 1, n = 4
[3] = 100 mg, 100 mg SC, day 18 cycle 1, n = 2, CV not calculated
[4] = 100 mg, 100 mg SC, day 18 cycle 2, n = 1
[5] = 160 mg, 160 mg SC, day 1 cycle 1, n = 3
[6] = 160 mg, 160 mg SC, day 3 cycle 1, n = 3
[7] = 160 mg, 160 mg SC, day 18 cycle 1, n = 3
[8] = 160 mg, 160 mg SC, day 18 cycle 2, n = 1
[9] = 200 mg, 200 mg SC, day 1 cycle 1, n = 4
[10] = 200 mg, 200 mg SC, day 3 cycle 1, n = 4
[11] = 200 mg, 200 mg SC, day 18 cycle 1, n = 3
[12] = 200 mg, 200 mg SC, day 18 cycle 4, n = 2, CV not calculated

Sequence: IRQQPRDPPTETLELEVSPDPAS [ALM201]
- Tmax (80 mg, 80 mg SC, day 18 cycle 2, n = 1): 3.5 h
- AUC(0-t) [1]: 6280 ng·h/mL
- AUC(0-t) [2]: 8870 ng·h/mL
- AUC(0-t) [3]: 8100 ng·h/mL
- AUC(0-t) [4]: 5930 ng·h/mL
- Cmax [1]: 1810 ng/mL
- Cmax [2]: 2750 ng/mL
- Cmax [3]: 2330 ng/mL
- Cmax [4]: 1790 ng/mL
- level at 0.25 h (100 mg, 100 mg SC, n = 4): 492 ng/mL
- level at 0.75 h (100 mg, 100 mg SC, n = 4): 1220 ng/mL
- level at 1.5 h (100 mg, 100 mg SC, day 1 cycle 1, 1.5 h after dosing, n = 4): 1810 ng/mL
- level at 2 h (100 mg, 100 mg SC, day 1 cycle 1, 2 h after dosing, n = 4): 1590 ng/mL
- level at 3 h (100 mg, 100 mg SC, n = 4): 1150 ng/mL
- level at 4 h (100 mg, 100 mg SC, n = 4): 922 ng/mL
- level at 5 h (100 mg, 100 mg SC, day 1 cycle 1, 5 h after dosing, n = 4, NQ value substituted with 100 ng/mL): 664 ng/mL
- level at 6 h (100 mg, 100 mg SC, n = 4, NQ value substituted with 100 ng/mL): 560 ng/mL
- level at 0.5 h (100 mg, 100 mg SC, day 3 cycle 1, 0.5 h after dosing, n = 4): 1730 ng/mL
- level at 1 h (100 mg, 100 mg SC, day 3 cycle 1, 1 h after dosing, n = 4): 2100 ng/mL
- level at 1.5 h (100 mg, 100 mg SC, day 3 cycle 1, 1.5 h after dosing, n = 4): 2530 ng/mL
- level at 2 h (100 mg, 100 mg SC, day 3 cycle 1, 2 h after dosing, n = 4): 2400 ng/mL
- level at 3.5 h (100 mg, 100 mg SC, day 3 cycle 1, 3.5 h after dosing, n = 4): 1690 ng/mL
- level at 5 h (100 mg, 100 mg SC, day 3 cycle 1, 5 h after dosing, n = 4): 928 ng/mL
- level at 0.5 h (100 mg, 100 mg SC, day 18 cycle 1, 0.5 h after dosing, n = 2): 1890 ng/mL
- level at 1 h (100 mg, 100 mg SC, day 18 cycle 1, 1 h after dosing, n = 2): 1840 ng/mL
- level at 1.5 h (100 mg, 100 mg SC, day 18 cycle 1, 1.5 h after dosing, n = 2): 2210 ng/mL
- level at 2 h (100 mg, 100 mg SC, day 18 cycle 1, 2 h after dosing, n = 2): 2130 ng/mL
- level at 3.5 h (100 mg, 100 mg SC, day 18 cycle 1, 3.5 h after dosing, n = 2): 1490 ng/mL
- level at 5 h (100 mg, 100 mg SC, day 18 cycle 1, 5 h after dosing, n = 2): 961 ng/mL
- level at 0.5 h (100 mg, 100 mg SC, day 18 cycle 2, 0.5 h after dosing, n = 1): 1060 ng/mL
- level at 1 h (100 mg, 100 mg SC, day 18 cycle 2, 1 h after dosing, n = 1): 1790 ng/mL
- level at 1.5 h (100 mg, 100 mg SC, day 18 cycle 2, 1.5 h after dosing, n = 1): 1710 ng/mL
- level at 2 h (100 mg, 100 mg SC, day 18 cycle 2, 2 h after dosing, n = 1): 1570 ng/mL
- level at 3.5 h (100 mg, 100 mg SC, day 18 cycle 2, 3.5 h after dosing, n = 1): 1180 ng/mL
- Tmax [1]: 1.5 h
- Tmax [2]: 1.61 h
- Tmax (100 mg, 100 mg SC, day 18 cycle 1, n = 2): 1.9 h
- Tmax [4]: 1.02 h
- AUC(0-t) [5]: 6510 ng·h/mL
- AUC(0-t) [6]: 5100 ng·h/mL
- AUC(0-t) [7]: 4930 ng·h/mL
- AUC(0-t) [8]: 5710 ng·h/mL
- Cmax [5]: 1990 ng/mL
- Cmax [6]: 1490 ng/mL
- Cmax [7]: 1350 ng/mL
- Cmax [8]: 1870 ng/mL
- level at 0.25 h (160 mg, 160 mg SC, n = 3): 833 ng/mL
- level at 0.75 h (160 mg, 160 mg SC, n = 3): 1570 ng/mL
- level at 1.5 h (160 mg, 160 mg SC, day 1 cycle 1, 1.5 h after dosing, n = 3): 1670 ng/mL
- level at 2 h (160 mg, 160 mg SC, day 1 cycle 1, 2 h after dosing, n = 3): 1480 ng/mL
- level at 3 h (160 mg, 160 mg SC, n = 3): 1280 ng/mL
- level at 4 h (160 mg, 160 mg SC, n = 3): 866 ng/mL
- level at 5 h (160 mg, 160 mg SC, day 1 cycle 1, 5 h after dosing, n = 3): 510 ng/mL
- level at 6 h (160 mg, 160 mg SC, n = 3): 283 ng/mL
- level at 0.5 h (160 mg, 160 mg SC, day 3 cycle 1, 0.5 h after dosing, n = 3): 956 ng/mL
- level at 1 h (160 mg, 160 mg SC, day 3 cycle 1, 1 h after dosing, n = 3): 1270 ng/mL
- level at 1.5 h (160 mg, 160 mg SC, day 3 cycle 1, 1.5 h after dosing, n = 3): 1460 ng/mL
- level at 2 h (160 mg, 160 mg SC, day 3 cycle 1, 2 h after dosing, n = 3): 1350 ng/mL
- level at 3.5 h (160 mg, 160 mg SC, day 3 cycle 1, 3.5 h after dosing, n = 3): 926 ng/mL
- level at 5 h (160 mg, 160 mg SC, day 3 cycle 1, 5 h after dosing, n = 3): 613 ng/mL
- level at 0.5 h (160 mg, 160 mg SC, day 18 cycle 1, 0.5 h after dosing, n = 3): 940 ng/mL
- level at 1 h (160 mg, 160 mg SC, day 18 cycle 1, 1 h after dosing, n = 3): 1150 ng/mL
- level at 1.5 h (160 mg, 160 mg SC, day 18 cycle 1, 1.5 h after dosing, n = 3): 1280 ng/mL
- level at 2 h (160 mg, 160 mg SC, day 18 cycle 1, 2 h after dosing, n = 3): 1200 ng/mL
- level at 3.5 h (160 mg, 160 mg SC, day 18 cycle 1, 3.5 h after dosing, n = 3): 995 ng/mL
- level at 5 h (160 mg, 160 mg SC, day 18 cycle 1, 5 h after dosing, n = 3): 577 ng/mL
- level at 0.5 h (160 mg, 160 mg SC, day 18 cycle 2, 0.5 h after dosing, n = 1): 1380 ng/mL
- level at 1 h (160 mg, 160 mg SC, day 18 cycle 2, 1 h after dosing, n = 1): 1380 ng/mL
- level at 1.5 h (160 mg, 160 mg SC, day 18 cycle 2, 1.5 h after dosing, n = 1): 1650 ng/mL
- level at 2 h (160 mg, 160 mg SC, day 18 cycle 2, 2 h after dosing, n = 1): 1870 ng/mL
- level at 3.5 h (160 mg, 160 mg SC, day 18 cycle 2, 3.5 h after dosing, n = 1): 870 ng/mL
- Tmax [5]: 1.52 h
- Tmax [8]: 2 h
- AUC(0-t) [9]: 5860 ng·h/mL
- AUC(0-t) [10]: 6630 ng·h/mL
- AUC(0-t) [11]: 5570 ng·h/mL
- AUC(0-t) [12]: 6110 ng·h/mL
- Cmax [9]: 1490 ng/mL
- Cmax [10]: 1620 ng/mL
- Cmax [11]: 1670 ng/mL
- Cmax (200 mg, 200 mg SC, day 18 cycle 2, n = 2, CV not calculated): 1890 ng/mL
- Cmax [12]: 1680 ng/mL
- level at 0.25 h (200 mg, 200 mg SC, n = 4): 479 ng/mL
- level at 0.75 h (200 mg, 200 mg SC, n = 4): 1040 ng/mL
- level at 1.5 h (200 mg, 200 mg SC, day 1 cycle 1, 1.5 h after dosing, n = 4): 1240 ng/mL
- level at 2 h (200 mg, 200 mg SC, day 1 cycle 1, 2 h after dosing, n = 4): 1370 ng/mL
- level at 3 h (200 mg, 200 mg SC, n = 4): 1360 ng/mL
- level at 4 h (200 mg, 200 mg SC, n = 4): 1050 ng/mL
- level at 5 h (200 mg, 200 mg SC, day 1 cycle 1, 5 h after dosing, n = 4): 620 ng/mL
